Like-named read-outs stand apart in the source and are kept apart here.

The subject of assay [1] is adjuvant-induced arthritis in rats. Description: Established Adjuvant-Induced Arthritis in Rats. The assay is classed as in vivo, Charles River Lewis male rats. Particulars: for ED50: Rattus norvegicus, read-out: A. A. ED50%.
Assay [2] relates to phenylquinone-induced writhing in mice. Description: Phenylquinone Writhing Test. The assay is classed as in vivo, female white mice. Particulars: Mus musculus, 0.5 h, oral, at 1/2 hour. Here is the method: A standard procedure for detecting and comparing the analgesic activity of compounds in this series for which there is good correlation with human efficacy is the standard phenylquinone writhing test modified from Siegmund, et al., Proc. Soc. Exp. Biol. Med. 95, 729 (1957). A test compound suspended in 1% methylcellulose was given orally to fasted (17-21 hours) female white mice, 5-20 animals per double blind test. Aqueous (0.01% phenyl-p-benzoquinone) phenylquinone was injected intraperitoneally at 24 minutes later using 0.20 ml per mouse. […] The effective analgesic dose for 50% of the mice (ED50) was calculated by the moving average method of Thompson, W. R., Bact. Rev. 11, 115-145 (1947); also time of peak action was determined for many of the compounds.
In general terms: An intraperitoneal irritant provokes the stretching counted in writhing tests.

Setting [3] is: oral, 7 daily doses, established adjuvant arthritis rats.
Setting [4] is: oral, 7 daily doses, established adjuvant arthritis rats, determined as % paw volume reduction from control.

As for `CC(=O)Oc1ccccc1C(=O)O` [Aspirin, reference compound], the ED50 in assay [1] (po) was found to be 305 mg/kg. In the case of `FC(F)C(F)(F)Sc1nc(-c2cccs2)c(-c2cccs2)[nH]1` [Example 1, 2-[(1,1,2,2-Tetrafluoroethyl)thio]-4,5-bis-(2-thienyl)-1H-imidazole], it took a dose of 4.6 mg/kg to reach the 50% effect level in assay [2] (ED50). Besides, the “% paw volume reduction from control at 50 mg/kg” value in assay [1] (setting [3]) is reported as 32%.

Regarding `Fc1ccc(-c2nc(SC(F)(F)C(F)F)[nH]c2-c2cccs2)cc1` [Example 2, 4-(4-Fluorophenyl)-2-(1,1,2,2-tetrafluoroethylthio)-5-(2-thienyl)-1H-imidazole], the ED50 in assay [1] (setting [4]) amounted to 1.3 mg/kg. Consider `O=S(=O)(c1nc(-c2ccc(F)cc2)c(-c2cccs2)[nH]1)C(F)(F)C(F)F` [Example 3, 4-(4-Fluorophenyl)-2-(1,1,2,2-tetrafluoroethylsulfonyl)-5-(2-thienyl)-1H-imidazole], for which the ED50 came to 2.1 mg/kg in assay [2] and 0.1 mg/kg in assay [1] (setting [4]). `FC(F)C(F)(F)Sc1nc(-c2ccc(Cl)cc2)c(-c2cccs2)[nH]1` [Example 4, 4-(4-Chlorophenyl)-2-(1,1,2,2-tetrafluoroethylthio)-5-(2-thienyl)-1H-imidazole]: the median effective dose (ED50) in assay [1] (setting [4]) was found to be 12 mg/kg.

In the case of `O=S(=O)(c1nc(-c2cccs2)c(-c2cccs2)[nH]1)C(F)(F)C(F)F` [Example 5, 2-(1,1,2,2-Tetrafluoroethylsulfonyl)-4,5-bis-(2-thienyl)-1H-imidazole], the 50% effective dose (ED50) in assay [2] was under 130 mg/kg; in assay [1] (setting [4]) it was 2.2 mg/kg. On to `FC(F)C(F)(F)Sc1nc(-c2ccc(Cl)c(Cl)c2)c(-c2cccs2)[nH]1` [Example 6, 4-(3,4-Dichlorophenyl)-2-(1,1,2,2-tetrafluoroethylthio)-5-(2-thienyl)-1H-imidazole], for which, in assay [1] (setting [4]), the 50% effective dose (ED50) was 50 mg/kg. With `COc1ccc(-c2nc(SC(F)(F)C(F)F)[nH]c2-c2cccs2)cc1` [Example 8, 4-(4-Methoxyphenyl)-2-(1,1,2,2-tetrafluoroethylthio)-5-(2-thienyl)-1H-imidazole], the ED50 in assay [2] was found to be 45 mg/kg; in assay [1] (setting [4]) it was 30 mg/kg. In the same order, the values of `COc1ccc(-c2nc(S(=O)(=O)C(F)(F)C(F)F)[nH]c2-c2cccs2)cc1` [Example 9, 4-(4-Methoxyphenyl)-2-(1,1,2,2-tetrafluoroethylsulfonyl)-5-(2-thienyl)-1H-imidazole] are 1.67 mg/kg and 5 mg/kg. For `FC(F)C(F)(F)Sc1nc(-c2ccco2)c(-c2ccco2)[nH]1` [Example 10, 4,5-bis-(2-Furyl)-2-(1,1,2,2-tetrafluoroethylthio)-1H-imidazole], the “% paw volume reduction from control at 50 mg/kg” value in assay [1] (setting [3]) came to 34%. `FC(F)C(F)(F)Sc1nc(-c2ccccc2)c(-c2cccnc2)[nH]1` [Example 11, 4-Phenyl-5-(3-pyridyl)-2-(1,1,2,2-tetrafluoroethylthio)-1H-imidazole]: the ED50 in assay [1] (setting [4]) was under 25 mg/kg. Same read-out and setting: as for `CC(C)Cc1ccc(C(C)C(=O)O)cc1` (stereo not shown) [Ibuprofen, reference compound], the figure is 100 mg/kg. Take `COc1ccc2c(c1)c(CC(=O)O)c(C)n2C(=O)c1ccc(Cl)cc1` [Indomethacin, reference compound]: the ED50 in assay [1] (po) worked out at 0.3 mg/kg. `CCCCC1C(=O)N(c2ccccc2)N(c2ccccc2)C1=O` [Phenylbutazone, reference compound]: the median effective dose (ED50) in assay [1] (setting [4]) was 10 mg/kg.

As a reminder, the ED50 is the dose at which the effect has come halfway, by size or by number of responders.
